This experiment concerns P. falciparum 3D7 growth, pLDH absorbance. The experiment in a line: P. falciparum 3D7 growth inhibition, dose response, strain 3D7 (AID 2305).

In general, IC50 refers to the concentration at which inhibition is half-maximal. The low end stands for greater potency, the high end for weaker potency.

With `O=C(C=Cc1ccccc1)Nc1ccc(C#CC=Cc2ccc(NC(=O)C=Cc3ccccc3)cc2)cc1`, the IC50 amounted to 850 nM. In turn, `CC(CC(=O)NCC1(c2ccc(F)cc2Cl)CCOCC1)C(=O)c1ccc(Cl)cc1` (stereo not drawn) had an IC50 of 860 nM.

With `CC(=NNC(=S)NCc1ccco1)c1ccccn1`, the IC50 turned out to be 250 nM. Take `CC(C)CCN1CCC(Oc2ccc(NC(=O)c3ccsc3)cc2Cl)CC1`: the half-maximal inhibitory concentration (IC50) amounted to 1040 nM. Under `NC(=NCCCCCCN=C(N)/N=C(\N)c1ccc(Cl)cc1)/N=C(\N)c1ccc(Cl)cc1` stands 210 nM; under `COc1ccc(C=NNc2nc3ccccc3[nH]2)cc1O`, 920 nM; under `Cc1ccc(C2(CN3CCC(NC(=O)c4ccn[nH]4)CC3)CCCCC2)cc1`, 220 nM. For `O=[N+]([O-])c1ccccc1C=NNc1ccnc2cc(Cl)ccc12`, the IC50 came out at 880 nM.

In turn, `CCN(CC)CCN(Cc1ccc(-c2ccc(C(F)(F)F)cc2)cc1)C(=O)Cn1c(CCc2cc(F)c(F)cc2F)nc(=O)c2ccccc21` showed an IC50 of 720 nM. Under `CCCCCCCN1CC[C@@H](CCCc2ccnc3ccc(OC)cc23)[C@@H](CNC)C1` stands 210 nM.

Consider `CC(=O)Nc1ccc(C(=O)Nc2cccc(-c3ccc(-c4nc5ccc(C(F)(F)F)cc5[nH]4)cc3)c2)cn1`, for which the IC50 is 230 nM. Under `CCCCCCC(C)c1cc(OCCN(CC)CC)c2c(c1)OC(C)(C)C=C2c1ccncc1` (stereo not drawn) stands 1260 nM; under `CCOc1cc(C(C)C)ccc1N1CCN(CCCCNC(=O)c2ccc(NC(=O)c3ccc(Cl)cc3)cc2)CC1`, 420 nM; under `COc1cc(Cc2cnc(N)nc2N)cc(OCCNC(=O)OCc2ccccc2)c1OC`, 920 nM. Under `Nc1c2c(nc3ccc(C(=O)Nc4ccccc4)cc13)CCCC2` stands 710 nM; under `CN1CCN(CC2(Nc3nccc(NCc4ccc(Cl)cc4Cl)n3)CCCCC2)CC1`, 590 nM; under `CN1CCC(N2CCN(Cc3ccc(-c4cccc(-c5nc6ccc(F)cc6[nH]5)c4)cc3)CC2)CC1`, 170 nM. Next, `CCS(=O)(=O)c1ccc(OC)c(Nc2nccc(-c3c(-c4cccc(NC(=O)c5c(F)cccc5F)c4)nn4ncccc34)n2)c1`: 1030 nM; `COc1ccccc1-c1ccc2nnc(SCC(=O)Nc3ccc4c(c3)OCCO4)n2n1`: 720 nM. In turn, `COc1ccc(CNCc2cccc(-c3ccc(-c4nc5ccccc5[nH]4)s3)c2)cc1` showed an IC50 of 820 nM. Next, `CCc1c(C(=O)NC2CCC(N3CCC(c4ccccc4OC)CC3)CC2)[nH]c2ccc(Br)cc12` (stereo not drawn): 1120 nM. As for `NC(=O)CN1CC=C(c2c[nH]c3ccc(Br)cc23)CC1`, the IC50 stood at 1100 nM.

`c1ccc(-c2cc(NCCCCNc3cc(-c4ccccc4)nc4ccccc34)c3ccccc3n2)cc1` returned an IC50 of 130 nM. Next, `CN1C(C)(C)CC(NC(=O)c2ccc(-c3cc4cc(Cl)c(Cl)cc4[nH]3)o2)CC1(C)C`: 1120 nM; `COc1ccc(OC)c(-c2ccc(O)c(CNCC(C)c3ccccc3)c2)c1` (stereo not drawn): 930 nM; `N=C(N)c1ccc(C=Cc2ccc(C(=N)N)cc2O)cc1`: 100 nM.

The compound `CC(=O)Nc1cccc(CNCc2ccc(-c3cnc(N4CCCC(c5ccccc5)C4)nc3)cc2)c1` (stereo not drawn) had an IC50 of 1190 nM. Against the preceding compound, the IC50 is about 12-fold higher.

`CC(=O)Nc1ccc(C(=O)Nc2cccc(-c3ccc(-c4nc5c(C)cccc5[nH]4)cc3)c2)cn1` returned a concentration for half-maximal inhibition (IC50) of 190 nM. Under `CC[C@H](C)CNC(=O)c1ccnc(-c2ccc(CNCCCc3ccccc3)cc2)c1` stands 1230 nM; under `CC(CN1CCN(C)CC1)C(=O)Nc1ccc(-c2ccc(-c3nc4ccccc4[nH]3)s2)cc1` (stereo not drawn), 640 nM; under `Fc1ccc2nccc(NN=Cc3ccccc3Cl)c2c1`, 920 nM. Under `CCOc1c(OC)ccc2c1CCN(CCN1CCC(CNC(=O)c3ccc(-c4ccc(C#N)cc4)cc3)CC1)C2` stands 1080 nM; under `CCCCc1ccc(C(=O)Nc2ccc3nc(N4CCN(CC)CC4)cc(C)c3c2)cc1`, 910 nM; under `CN1CCc2cc(I)c(O)cc2C1Cc1ccccc1Cl` (stereo not drawn), 790 nM. As to `Oc1ccc(CCNc2nc(NCc3ccccc3-c3ccc(C(F)(F)F)cc3)nc(N3CCCNCC3)n2)cc1`, the half-inhibitory concentration (IC50) was 870 nM. Next, `CC(Cc1ccc(NS(=O)(=O)c2ccc(CC(C)NCCc3cccc(Cl)c3)cc2)cc1)NCCc1cccc(Cl)c1` (stereo not drawn): 780 nM; `Cc1cc(CNC(c2ccccc2)C2CCC2)cc(C)c1O` (stereo not drawn): 890 nM. Under `O=C(Cc1cccc(O)c1)Nc1ccc(-c2cccc(-c3nc4ccc(C(F)(F)F)cc4[nH]3)c2)cc1` stands 980 nM; under `O=C(/C=C/c1ccc(Cl)c(Cl)c1)NCC1CCC(CN2CCC(c3c[nH]c4ccccc34)CC2)CC1` (stereo not drawn), 360 nM. Under `O=C(c1cc(C(=O)NCc2ccc(Cl)cc2)c(=O)n(Cc2ccc(Cl)cc2)c1)c1cc(Cl)ccc1O` stands 1400 nM; under `COc1ccccc1CNC(=O)c1cc(OC)c(OC)cc1NC(=O)c1cccs1`, 1440 nM.

`COc1ccc2ncc(Cl)c(CCN3C[C@H](CNCc4ccc5c(n4)NC(=O)CS5)[C@H](O)C3)c2n1` yielded an IC50 of 1000 nM. Compound `COc1c(C(=O)NC2CCN(Cc3ccccc3)C2)cnc2ccccc12` (stereo not drawn) had an IC50 of 960 nM.

The values above are taken from PubChem BioAssay AID2305 (GlaxoSmithKline (GSK), 2010).
